US10280169B2, “Biaryl bruton's tyrosine kinase inhibitors” (BIOGEN MA INC., priority 2013, dated 2019)

target: T1, BTK (Homo sapiens, UniProt Q06187); test: In vitro BTK kinase assay: BTK-POLYGAT-LS assay; assay type: biochemical; conditions: 10 uM ATP, read-out: IC50 (10 uMATP)
T1 construct: purchased Upstate 14-552
T1 sequence (Q06187 whole entry): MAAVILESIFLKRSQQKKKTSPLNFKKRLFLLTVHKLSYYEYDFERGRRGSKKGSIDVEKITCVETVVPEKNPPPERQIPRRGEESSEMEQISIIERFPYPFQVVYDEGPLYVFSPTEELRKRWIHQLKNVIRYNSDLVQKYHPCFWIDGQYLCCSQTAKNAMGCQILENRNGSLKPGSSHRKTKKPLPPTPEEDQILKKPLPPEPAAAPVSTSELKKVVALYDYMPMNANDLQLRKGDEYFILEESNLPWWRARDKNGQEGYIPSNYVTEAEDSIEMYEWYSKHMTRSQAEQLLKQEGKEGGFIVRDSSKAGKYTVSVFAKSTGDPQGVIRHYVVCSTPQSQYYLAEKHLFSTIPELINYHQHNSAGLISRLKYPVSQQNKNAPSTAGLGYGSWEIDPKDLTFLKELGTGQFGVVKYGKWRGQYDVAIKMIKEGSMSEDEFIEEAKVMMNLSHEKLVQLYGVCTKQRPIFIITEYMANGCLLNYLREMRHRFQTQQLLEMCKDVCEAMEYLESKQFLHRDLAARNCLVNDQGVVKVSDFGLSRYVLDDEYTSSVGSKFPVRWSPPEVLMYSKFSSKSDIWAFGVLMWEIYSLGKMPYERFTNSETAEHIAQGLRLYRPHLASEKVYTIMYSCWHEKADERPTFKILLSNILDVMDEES

First: O=C(NCc1ccc(-c2ncnc3[nH]ccc23)cc1)c1ccc2c(n1)CCCC2 [Example I-58, N-(4-(7H-pyrrolo[2,3-d]pyrimidin-4-yl)benzyl)-5,6,7,8-tetrahydroquinoline-2-carboxamide]
Second: O=C(NCc1ccc(-c2ncnc3[nH]ccc23)cc1)c1cc2c(s1)CCCC2 [Example I-65, N-(4-(7H-pyrrolo[2,3-d]pyrimidin-4-yl)benzyl)-4,5,6,7-tetrahydrobenzo[b]thiophene-2-carboxamide]
The IC50 of the first is higher: 100 to 999 nM for the first, 10 to 99 nM for the second. The second is the more potent here.

First: Cc1cc(-c2ncnc3nc(N4CCOC(C(=O)O)C4)[nH]c23)ccc1CNC(=O)c1cnc(C(C)(C)C)s1 (centres unmarked) [Example I-124, 4-(6-(4-((2-(tert-butyl)thiazole-5-carboxamido)methyl)-3-methylphenyl)-7H-purin-8-yl)morpholine-2-carboxylic acid]
Second: Cc1cc(-c2ncnc3nc(N4CC(N(C)C)C4)[nH]c23)ccc1CNC(=O)c1cnc(C(C)(C)C)s1 [Example I-53, 2-(tert-butyl)-N-(4-(8-(3-(dimethylamino)azetidin-1-yl)-7H-purin-6-yl)-2-methylbenzyl)thiazole-5-carboxamide]
The IC50 of the first is higher: 10 to 99 nM for the first, < 10 nM for the second. The second is the more potent here.

Compared with `O=C(NC1CCCc2cc(-c3ncnc4[nH]ncc34)ccc21)c1cc2ccccc2s1` (centres unmarked) [Example I-120, N-(6-(1H-pyrazolo[3,4-d]pyrimidin-4-yl)-1,2,3,4-tetrahydronaphthalen-1-yl)benzo[b]thiophene-2-carboxamide], `O=C(NC1CCCc2cc(-c3ncnc4[nH]ncc34)ccc21)c1nc2ccccc2s1` (centres unmarked) [Example I-106, N-(6-(1H-pyrazolo[3,4-d]pyrimidin-4-yl)-1,2,3,4-tetrahydronaphthalen-1-yl)benzo[d]thiazole-2-carboxamide] is higher in IC50: < 10 nM for the first, 10 to 99 nM for the second.

First: CC(C)(C)c1ccc(C(=O)NCc2ccc(-c3ncnc4[nH]ccc34)cc2C(N)=O)nc1 [Example I-7, 5-(tert-butyl)-N-(2-carbamoyl-4-(7H-pyrrolo[2,3-d]pyrimidin-4-yl)benzyl)picolinamide]
Second: CC(C)(C)c1ccc(C(=O)NCc2ccc(-c3ncnc4[nH]ccc34)cc2)nc1 [Example I-68, N-(4-(7H-pyrrolo[2,3-d]pyrimidin-4-yl)benzyl)-5-(tert-butyl)picolinamide]
The IC50 of the first is higher: 1000 to 10000 nM for the first, 100 to 999 nM for the second.

`Cc1cc(-c2ncnc3[nH]ncc23)ccc1C(C)NC(=O)c1cnc(C(C)(C)C)s1` (centres unmarked) [Example I-128, 2-(tert-butyl)-N-(1-(2-methyl-4-(1H-pyrazolo[3,4-d]pyrimidin-4-yl)phenyl)ethyl)thiazole-5-carboxamide] and `Cc1cc(-c2ncnc3cc[nH]c23)ccc1C(C)NC(=O)c1cnc(C(C)(C)C)s1` (centres unmarked) [Example I-134, 2-(tert-butyl)-N-(1-(2-methyl-4-(5H-pyrrolo[3,2-d]pyrimidin-4-yl)phenyl)ethyl)thiazole-5-carboxamide] fall in the same range of IC50: 10 to 99 nM for the first, 10 to 99 nM for the second.

`CC(C)(C)c1ccc(C(=O)NC2CCCc3cc(-c4ncnc5[nH]ccc45)ccc32)cc1` (centres unmarked) [Example I-14, N-(6-(7H-pyrrolo[2,3-d]pyrimidin-4-yl)-1,2,3,4-tetrahydronaphthalen-1-yl)-4-(tert-butyl)benzamide] and `CC(C)(C)c1ccc(C(=O)NC2CCCc3cc(-c4ncnc5[nH]ccc45)ccc32)nc1` (centres unmarked) [Example I-15, N-(6-(7H-pyrrolo[2,3-d]pyrimidin-4-yl)-1,2,3,4-tetrahydronaphthalen-1-yl)-5-(tert-butyl)picolinamide] fall in the same range of IC50: 10 to 99 nM for the first, 10 to 99 nM for the second.

Compared with `CC(NC(=O)c1cc2c(s1)CCCC2)c1ccc(-c2ncnc3[nH]ncc23)cc1C(F)(F)F` (centres unmarked) [Example I-135, N-(1-(4-(1H-pyrazolo[3,4-d]pyrimidin-4-yl)-2-(trifluoromethyl)phenyl)ethyl)-4,5,6,7-tetrahydrobenzo[b]thiophene-2-carboxamide], `NC(=O)C(NC(=O)c1cc2c(s1)CCCC2)c1ccc(-c2ncnc3[nH]ncc23)cc1` (centres unmarked) [Example I-151, N-(1-(4-(1H-pyrazolo[3,4-d]pyrimidin-4-yl)phenyl)-2-amino-2-oxoethyl)-4,5,6,7-tetrahydrobenzo[b]thiophene-2-carboxamide] is higher in IC50: 10 to 99 nM for the first, 1000 to 10000 nM for the second.

First: O=C(NC1CCCc2cc(-c3ncnc4[nH]ncc34)ccc21)c1cc2c(s1)CCCC2 (centres unmarked) [Example I-107, N-(6-(1H-pyrazolo[3,4-d]pyrimidin-4-yl)-1,2,3,4-tetrahydronaphthalen-1-yl)-4,5,6,7-tetrahydrobenzo[b]thiophene-2-carboxamide]
Second: O=C(N[C@@H]1CCCc2cc(-c3ncnc4[nH]ccc34)ccc21)c1cc2c(s1)CCCC2 [Example I-81, (R)—N-(6-(7H-Pyrrolo[2,3-d]pyrimidin-4-yl)-1,2,3,4-tetrahydronaphthalen-1-yl)-4,5,6,7-tetrahydrobenzo[b]thiophene-2-carboxamide]
The IC50 of the first is lower: < 10 nM for the first, 100 to 999 nM for the second. The first is the more potent here.

`O=C(NC1CCCc2cc(-c3ncnc4[nH]ncc34)ccc21)c1nc2c(s1)CCCC2` (centres unmarked) [Example I-137, N-(6-(1H-pyrazolo[3,4-d]pyrimidin-4-yl)-1,2,3,4-tetrahydronaphthalen-1-yl)-4,5,6,7-tetrahydrobenzo[d]thiazole-2-carboxamide] and `CC1(C)CCc2nc(C(=O)NC3CCCc4cc(-c5ncnc6[nH]ncc56)ccc43)sc2C1` (centres unmarked) [Example I-136, N-(6-(1H-pyrazolo[3,4-d]pyrimidin-4-yl)-1,2,3,4-tetrahydronaphthalen-1-yl)-6,6-dimethyl-4,5,6,7-tetrahydrobenzo[d]thiazole-2-carboxamide] fall in the same range of IC50: 10 to 99 nM for the first, 10 to 99 nM for the second.

First: O=C(NCc1ccc(-c2ncnc3[nH]ccc23)cc1)c1cn2c(n1)CCC2 [Example I-59, N-(4-(7H-pyrrolo[2,3-d]pyrimidin-4-yl)benzyl)-6,7-dihydro-5H-pyrrolo[1,2-a]imidazole-2-carboxamide]
Second: O=C(NCc1ccc(-c2ncnc3[nH]ccc23)cc1)c1ccc(C(F)(F)F)cn1 [Compound I-146]
The IC50 of the first is higher: 1000 to 10000 nM for the first, 100 to 999 nM for the second.

`Cn1cc(-c2cc3c(-c4ccc5c(c4)CCCCC5NC(=O)N4CC(OC(C)(C)C)C4)ncnc3[nH]2)cn1` (centres unmarked) [Example I-164, 3-(tert-butoxy)-N-(2-(6-(1-methyl-1H-pyrazol-4-yl)-7H-pyrrolo[2,3-d]pyrimidin-4-yl)-6,7,8,9-tetrahydro-5H-benzo[7]annulen-5-yl)azetidine-1-carboxamide] and `CC(C)OC1CN(C(=O)NC2CCCCc3cc(-c4ncnc5[nH]c(-c6cnn(C)c6)cc45)ccc32)C1` (centres unmarked) [Example I-163, 3-isopropoxy-N-(2-(6-(1-methyl-1H-pyrazol-4-yl)-7H-pyrrolo[2,3-d]pyrimidin-4-yl)-6,7,8,9-tetrahydro-5H-benzo[7]annulen-5-yl)azetidine-1-carboxamide] cannot be ordered by IC50: < 10 nM for the first, < 10 nM for the second.

`O=C(NC1CCCc2cc(-c3ncnc4[nH]ncc34)ccc21)c1ccc(Cl)c(F)c1` (centres unmarked) [Example I-90, N-(6-(1H-pyrazolo[3,4-d]pyrimidin-4-yl)-1,2,3,4-tetrahydronaphthalen-1-yl)-4-chloro-3-fluorobenzamide] and `CC(C)(C)c1ccc(C(=O)NC2CCCc3cc(-c4ncnc5[nH]ncc45)ccc32)cn1` (centres unmarked) [Example I-142, N-(6-(1H-pyrazolo[3,4-d]pyrimidin-4-yl)-1,2,3,4-tetrahydronaphthalen-1-yl)-6-(tert-butyl)nicotinamide] fall in the same range of IC50: 100 to 999 nM for the first, 100 to 999 nM for the second.

Compared with `CC(C)(C)c1ncc(C(=O)NC(CO)c2ccc(-c3ncnc4cc(C5=CCS(=O)(=O)CC5)[nH]c34)cc2)s1` (centres unmarked) [Example I-29, 2-(tert-butyl)-N-(1-(4-(6-(1,1-dioxido-3,6-dihydro-2H-thiopyran-4-yl)-5H-pyrrolo[3,2-d]pyrimidin-4-yl)phenyl)-2-hydroxyethyl)thiazole-5-carboxamide], `Cc1cc(-c2ncnc3nc(C4CCN(C)CC4)[nH]c23)ccc1CNC(=O)c1cnc(C(C)(C)C)s1` [Example I-54, 2-(tert-butyl)-N-(2-methyl-4-(8-(1-methylpiperidin-4-yl)-7H-purin-6-yl)benzyl)thiazole-5-carboxamide] is higher in IC50: 10 to 99 nM for the first, 100 to 999 nM for the second.

Compared with `O=C(NCc1ncc(-c2ncnc3[nH]ncc23)cc1F)c1cc2c(s1)CCCC2` [Example I-109, N-((3-fluoro-5-(1H-pyrazolo[3,4-d]pyrimidin-4-yl)pyridin-2-yl)methyl)-4,5,6,7-tetrahydrobenzo[b]thiophene-2-carboxamide], `Cc1cc(-c2ncnc3[nH]ncc23)ccc1C(C)NC(=O)c1nc2c(s1)CCCC2` (centres unmarked) [Example I-127, N-(1-(2-methyl-4-(1H-pyrazolo[3,4-d]pyrimidin-4-yl)phenyl)ethyl)-4,5,6,7-tetrahydrobenzo[d]thiazole-2-carboxamide] is lower in IC50: 100 to 999 nM for the first, 10 to 99 nM for the second. The second is the more potent here.

Compared with `O=C(NC1CCCc2cc(-c3ncnc4[nH]ncc34)ccc21)c1ccc(C(F)(F)F)cn1` (centres unmarked) [Example I-147, N-(6-(1H-pyrazolo[3,4-d]pyrimidin-4-yl)-1,2,3,4-tetrahydronaphthalen-1-yl)-5-(trifluoromethyl)picolinamide], `CC(C)(C)c1nnc(C(=O)NC2CCCc3cc(-c4ncnc5[nH]ncc45)ccc32)s1` (centres unmarked) [Example I-103, N-(6-(1H-pyrazolo[3,4-d]pyrimidin-4-yl)-1,2,3,4-tetrahydronaphthalen-1-yl)-5-(tert-butyl)-1,3,4-thiadiazole-2-carboxamide] is lower in IC50: 1000 to 10000 nM for the first, 100 to 999 nM for the second. The second is the more potent here.

First: O=C(NCc1ccc(-c2ncnc3[nH]ccc23)cc1)C1Cc2ccccc2C1 [Example I-60, N-(4-(7H-pyrrolo[2,3-d]pyrimidin-4-yl)benzyl)-2,3-dihydro-1H-indene-2-carboxamide]
Second: O=C(NCc1ccc(-c2ncnc3[nH]ccc23)cc1)c1cc2ccccc2s1 [Example I-61, N-(4-(7H-pyrrolo[2,3-d]pyrimidin-4-yl)benzyl)benzo[b]thiophene-2-carboxamide]
The IC50 of the first is higher: > 10000 nM for the first, 10 to 99 nM for the second. The second is the more potent here.

First: CCc1cc(-c2ncnc3[nH]ccc23)ccc1CNC(=O)c1ccc(C(C)(C)C)cc1 [Example I-10, 4-(tert-butyl)-N-(2-ethyl-4-(7H-pyrrolo[2,3-d]pyrimidin-4-yl)benzyl)benzamide]
Second: Cc1cc(-c2ncnc3sc4c(c23)CCC4)ccc1CNC(=O)c1cnc(C(C)(C)C)s1 [Example I-141]
The IC50 of the first is lower: 10 to 99 nM for the first, 100 to 999 nM for the second.

`CC(C)OC1CN(C(=O)NC2CCCc3cc(-c4ncnc5[nH]c(-c6cnn(C)c6)cc45)ccc32)C1` (centres unmarked) [Example I-158, 3-isopropoxy-N-(6-(6-(1-methyl-1H-pyrazol-4-yl)-7H-pyrrolo[2,3-d]pyrimidin-4-yl)-1,2,3,4-tetrahydronaphthalen-1-yl)azetidine-1-carboxamide] was tested, and the IC50 was < 10 nM.
